Measured values taken from US8207224B2, “Preservatives based on carboxylic anhydrides” (LANXESS Deutchland GmbH, priority 2006, dated 2012).
Values joined by “and” are separate entries in the source; they are usually repeats but may differ in a detail not shown here. Equal values may be shown once.

How the values were obtained:
Format in all cases: cell-based
[1] = system: Saccharomyces cerevisiae; test: Sterilization test in contaminated apple juice against Saccharomyces cerevisiae; conditions: for Germ number after 24 h (carried out in duplicate): contact time 24 hours at 20° C. On Visual evaluation after 4 weeks: key: − = not fermented; + = fermented.
Experimental: (§1) Soft drinks were contaminated with the respective stated microorganisms. The active compound concentration required for disinfecting the beverages was determined by sterilization tests.
(§2) Nutrient Media: Yeast orange serum agar (from Oxoid CM657)
(§3) Substances: The substances used were employed neat or as ethanolic or butanolic solutions (for example 2.0% by volume) or suspensions. Dimethyl dicarbonate, Na benzoate, K sorbate, sorbic anhydride and benzoic anhydride were synthesized by known methods or were commercially available. The respective solutions were in each case freshly prepared (alcoholysis). Apparatus: 50 ml tissue culture flasks from Greiner, gauze compresses from Holthans, Thoma counting chamber from Brand.
(§4) As a matter of principle, sterile reagents and apparatus were used. In addition to sterile disposable articles, the required apparatus and reagents were sterilized by suitable measures before use. Sterilization measures were heat treatment in a drying cabinet (at least 8 hours at about 120° C.) or in an autoclave (at least 15 minutes at about 120° C.).
(§5) Before the test was carried out, the beverage substrates were filled into tissue culture flasks. In general, the amount of beverage was 40 ml. Filling was carried out under sterile conditions. At this point in time, it was also possible for the persistent preservatives to be introduced.
(§6) The cultures, which were grown under optimum conditions (in tissue culture flasks from Greiner; 50 ml, 25 cm^2 or in oblique agar tubes), were wetted with up to 30 ml (depending on the test germ) of NaCl solution (if appropriate with addition of about 3 drops of Tween 80), rinsed off or, using glass beads (depending on the germ), scrubbed off intensively and, if required, filtered. Alternatively, it was also possible to employ fluid cultures. Using a microscope and a Thoma chamber, it was possible to carry out a preliminary determination of the germ number. An accurate determination of the germ number of the germ solution used was carried out using the Koch inoculation plate method.
(§7) Depending on the given germ seed (for example 50-500 germs/ml of substrate), the appropriate volume of germ solution (original or dilution) were added and the sample was shaken intensively.
(§8) The doses of active compound, added as pure substance or as appropriate alcoholic solution or suspension in the case of dimethyl dicarbonate and the carboxylic anhydrides, were then added. For a period of about 20 seconds, the samples were immediately shaken intensively.
(§9) The beverage samples were stored at a cultivation temperature of 26° C.±2° C.
(§10) In the case of formerly clear beverages, clouding indicates contamination. In the case of cloudy fruit pulp-containing beverages, visual evaluation was not always possible. Accordingly, in these cases evaluation was carried out as a germ number determination in agar.
The tests were carried out as stated in Example 1.

[2] = system: Mixture of different problem yeasts from a beverage filling unit; test: Sterilization test in contaminated apple juice against yeast mix; conditions: germ seed 56.000 cfu/ml; on Visual evaluation after 4 weeks: key: − = not fermented; + = fermented
Experimental: as §1, §2, §3, §4, §5, §6, §7, §8, §9, §10
The tests were carried out as Stated in Example 1.

[3] = system: Mixture of different problem yeasts from a beverage filling unit; test: as above; conditions: contact time 24 hours at 20° C., germ seed 56.000 cfu/ml; on Visual evaluation after 4 weeks: key: − = not fermented; + = fermented
[4] = Table 2: 50 mg/l, apple juice, germ seed 56.000 cfu/ml
[5] = Table 2: 100 mg/l, apple juice, germ seed 56.000 cfu/ml
[6] = Table 2: 250 mg/l, apple juice, germ seed 56.000 cfu/ml
[7] = 177 mg/l, pH 3.5, apple juice, germ seed 56 000 cfu/ml
[8] = 177 mg/l, pH 6.0, apple juice, germ seed 56 000 cfu/ml
[9] = Table 2: 177 mg/l, apple juice, germ seed 56.000 cfu/ml
[10] = 250 mg/l, pH 3.5, apple juice, germ seed 56 000 cfu/ml
[11] = 250 mg/l, pH 6.0, apple juice, germ seed 56 000 cfu/ml
[12] = 100 mg/l, pH 3.5, apple juice, germ seed 56 000 cfu/ml
[13] = 150 mg/l, pH 3.5, apple juice, germ seed 56 000 cfu/ml
[14] = 150 mg/l, pH 6.0, apple juice, germ seed 56 000 cfu/ml

Structure (SMILES): C/C=C/C=C/C(=O)OC(=O)/C=C/C=C/C [Sorbic anhydride, sorbic anhydride]
- Germ number after 24 h (carried out in duplicate) [1, 4]: <10
- Visual evaluation after 4 weeks [1, 4]: −
- Germ number after 24 h (carried out in duplicate) [1, 5]: <10
- Visual evaluation after 4 weeks [1, 5]: −
- Germ number after 24 h (carried out in duplicate) [1, 6]: <10
- Visual evaluation after 4 weeks [1, 6]: −
- Visual evaluation after 4 weeks ([2]; 50 mg/l): +
- Visual evaluation after 4 weeks ([2]; 100 mg/l): +
- Visual evaluation after 4 weeks ([2]; 250 mg/l): −
- Germ number after 24 h (carried out in duplicate) ([3]; 50 mg/l): 2.6 × 10^5 and 1.8 × 10^5
- Germ number after 24 h (carried out in duplicate) ([3]; 100 mg/l): 9.2 × 10^4 and 9.4 × 10^4
- Germ number after 24 h (carried out in duplicate) ([3]; 250 mg/l): 985 and 1080

Structure (SMILES): O=C([O-])c1ccccc1.[Na+] [Na benzoate, Sodium benzoate, reference compound]
- Germ number after 24 h (carried out in duplicate) [1, 7]: 6.8 × 10^5 and 5.3 × 10^5
- Visual evaluation after 4 weeks [1, 7]: +
- Germ number after 24 h (carried out in duplicate) [1, 8]: 2.6 × 10^6 and 2.2 × 10^6
- Visual evaluation after 4 weeks [1, 8]: +
- Germ number after 24 h (carried out in duplicate) [1, 9]: 1.3 × 10^5 and 1.1 × 10^5
- Visual evaluation after 4 weeks [1, 9]: +
- Visual evaluation after 4 weeks ([2]; 177 mg/l): +
- Germ number after 24 h (carried out in duplicate) ([3]; 177 mg/l): 1.3 × 10^5 and 1.1 × 10^5

Structure (SMILES): COC(=O)OC(=O)OC [Dimethyl dicarbonate, reference compound]
- Visual evaluation after 4 weeks [1, 10]: +
- Visual evaluation after 4 weeks [1, 11]: +
- Germ number after 24 h (carried out in duplicate) [1, 6]: <10
- Visual evaluation after 4 weeks [1, 6]: +
- Germ number after 24 h (carried out in duplicate) ([2]; 250 mg/l, contact time 24 hours at 20° C.): 6.8 × 10^6 and 5.7 × 10^6
- Visual evaluation after 4 weeks ([2]; 250 mg/l): +

Structure (SMILES): O=C(OC(=O)c1ccccc1)c1ccccc1 [Benzoic anhydride, benzoic anhydride]
- Germ number after 24 h (carried out in duplicate) [1, 12]: <10
- Visual evaluation after 4 weeks [1, 12]: −
- Visual evaluation after 4 weeks ([1]; 100 mg/l, pH 6.0, apple juice, germ seed 56 000 cfu/ml): +
- Germ number after 24 h (carried out in duplicate) [1, 13]: <10
- Visual evaluation after 4 weeks [1, 13]: −
- Germ number after 24 h (carried out in duplicate) [1, 14]: about 10
- Visual evaluation after 4 weeks [1, 14]: +
- Germ number after 24 h (carried out in duplicate) [1, 10]: <10
- Visual evaluation after 4 weeks [1, 10]: −
- Germ number after 24 h (carried out in duplicate) [1, 11]: <10
- Visual evaluation after 4 weeks [1, 11]: −
